From US11214803B2, “Modulators of YAP1 expression” (Ionis Pharmaceuticals, Inc., priority 2019, dated 2022)
Marks after values point to notes of the source that are not given here. Strand notation (5' to 3'): a small letter for the sugar, then the base; units joined by * are phosphorothioate-linked, units joined directly phosphodiester-linked; [ ] holds rarer units or linkages, { } end groups; capitals alone tell only the bases. k = constrained ethyl (cEt); [5mC] = 5-methylcytosine; d = 2'-deoxy (DNA)

Columns and labels:
Yap1 mRNA [1] = assay: Dose-dependent inhibition of human Yap1 in A-431 cells (Example 7, 10,000 cells per well, RTS36584); assay type: cell-based; conditions: free uptake
Summary of the method: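 A-431 cells at 10,000 per well received modified oligonucleotides by free uptake at several doses. After about 48 hours, Yap1 mRNA was quantified with primer-probe set RTS36584, normalized to RIBOGREEN total RNA and expressed as % untreated control. IC50 came from linear regression on a log/linear plot.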

[2] = Tolerability in Sprague-Dawley rats, body and organ weights (Example 21); assay type: in vivo; conditions: male Sprague-Dawley rats, 50 mg/kg s.c. weekly for 6 weeks (7 doses); for Kidney weight / Liver weight / Spleen weight: end of study; for body weight: terminal, prior to necropsy
Protocol: Terminal body weight was measured prior to necropsy. Ionis oligonucleotides that caused any changes in organ weights outside the expected range for modified oligonucleotides were excluded from further studies.

[3] = Tolerability in Sprague-Dawley rats, plasma chemistry markers (Example 20); assay type: in vivo; conditions: male Sprague-Dawley rats, 50 mg/kg s.c. weekly for 6 weeks (7 doses), 48 hours after last dose
Protocol: Sprague-Dawley rats are a multipurpose model used for safety and efficacy evaluations. The rats were treated with Ionis modified oligonucleotides from the studies described in the Examples above and evaluated for changes in the levels of various plasma chemistry markers.

Yap1 mRNA [4] = assay: Yap1 mRNA levels in SNU449 xenograft tumors, alone and in combination with sorafenib (second Example 30); assay type: in vivo, human; conditions: SNU449 xenograft mice, oligonucleotide 50 mg/kg, sorafenib 30 mg/kg orally, tumors collected day 119 post implantation, relative to PBS
Protocol: Modified oligonucleotides described in the studies above were tested in a hepatocellular carcinoma SNU449 xenograft tumor model. In addition to testing the modified oligonucleotide by itself, combination therapy with sorafenib was also tested. A control oligonucleotide 792169, described herein above, was also tested.
(§1) Five million SNU449 cells in 30% matrigel were implanted subcutaneously into the fatpads of female NOD.Cg-Prkdcscid II2rgtmlWjl/SzJ mice (from Jackson Laboratory) at 4-6 weeks of age. 43 days post implantation (when tumors had reached approximately 100 mm^3 in size), groups of eight mice each were administered with 50 mg/kg modified oligonucleotide daily for 10 days (loading dose), following which they were administered with 50 mg/kg modified oligonucleotide four times a week for one week, following which they were dosed with 50 mg/kg modified oligonucleotide thrice weekly until the end of the study. […] Animals were sacrificed, and tumors were collected on day 119 post implantation.
Yap1 mRNA knockdown in tumors was measured by RT-qPCR as previously described using the Human Yap1 primer-probe set RTS4814. Yap1 mRNA levels were normalized to actin-beta content, as measured by primer probe set RTS5002. Results are presented in the tables below as percent control of the amount of Yap1 mRNA relative to PBS treated animals (% control).

SNU449 xenograft tumor = assay: Tumor volume in SNU449 xenograft tumor model, alone and in combination with sorafenib (second Example 30); assay type: in vivo, human; conditions: SNU449 xenograft, oligonucleotide 50 mg/kg, sorafenib 30 mg/kg orally
Protocol: Modified oligonucleotides described in the studies above were tested in a hepatocellular carcinoma SNU449 xenograft tumor model. […] A control oligonucleotide 792169, described herein above, was also tested.
as §1
Tumor volumes were also measured at the indicated days in the table below.

Yap1 mRNA [5] = assay: Antisense inhibition of human Yap1 in A-431 cells by cEt gapmers, single dose (Example 3, RTS36584); assay type: cell-based
Summary of the method: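 Values are % untreated control: Yap1 mRNA by quantitative RT-PCR (RTS36584), normalized to total RNA by RiboGreen. Before RNA isolation, 5,000 A-431 cells per well were exposed ~48 h to 2,000 nM 16-mer cEt gapmer, delivered without transfection reagent.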

[6] = day 101 post tumor implantation
[7] = day 105 post tumor implantation
[8] = day 108 post tumor implantation
[9] = day 119 post tumor implantation

715487 (kA*kT*kT*dA*d[5mC]*dT*dT*d[5mC]*dA*dT*dA*dG*d[5mC]*kT*kT*kA) [compound 715487]
Yap1 mRNA, % UTC (Yap1 mRNA [1]; 15.6 nM, A-431 cells, 10,000 cells per well, approximately 48 hours): 77 % UTC | Yap1 mRNA, % UTC (Yap1 mRNA [1]; 62.5 nM, A-431 cells, 10,000 cells per well, approximately 48 hours): 44 % UTC | Yap1 mRNA, % UTC (Yap1 mRNA [1]; 4000.00 nM, A-431 cells, 10,000 cells per well, approximately 48 hours): 4 % UTC | IC50 (Yap1 mRNA [1]; A-431 cells, approximately 48 hours, linear regression on log/linear plot): 100 nM

1198439 (AGTGTATGTCAGAAGA; sugar, 5-methylcytosine, phosphorothioate modifications, further chemistry not given here) [compound 1198439]
Kidney weight [2]: 3.68* g | Liver weight [2]: 17* g | Spleen weight [2]: 2.28* g | body weight [2]: 319* g

1076453 (GTAATATTGCAATCTG; 3-10-3 cEt gapmer, further chemistry not given here) [compound 1076453]
ALB [3]: 3.14 g/dL | ALT [3]: 47 U/L | AST [3]: 77 U/L | BUN [3]: 23 mg/dL | TBIL [3]: 0.13 mg/dL

1198440 (AAGTGTATGTCAGAAG; cEt, 2'-MOE, 5-methylcytosine, phosphorothioate modifications, further chemistry not given here) [compound 1198440]
Kidney weight [2]: 3.29 g | Liver weight [2]: 18 g | Spleen weight [2]: 2.78 g | body weight [2]: 373 g | Yap1 mRNA levels in tumors (Yap1 mRNA [4]): 34 % control | Average Tumor Volume (SNU449 xenograft tumor; day 43 post tumor implantation): 111 mm^3 | Average Tumor Volume (SNU449 xenograft tumor; day 46 post tumor implantation): 152 mm^3 | Average Tumor Volume (SNU449 xenograft tumor; day 50 post tumor implantation): 168 mm^3 | Average Tumor Volume (SNU449 xenograft tumor; day 53 post tumor implantation): 201 mm^3 | Average Tumor Volume (SNU449 xenograft tumor; day 57 post tumor implantation): 242 mm^3 | Average Tumor Volume (SNU449 xenograft tumor; day 60 post tumor implantation): 263 mm^3 | Average Tumor Volume (SNU449 xenograft tumor; day 64 post tumor implantation): 338 mm^3 | Average Tumor Volume (SNU449 xenograft tumor; day 67 post tumor implantation): 376 mm^3 | Average Tumor Volume (SNU449 xenograft tumor; day 71 post tumor implantation): 373 mm^3 | Average Tumor Volume (SNU449 xenograft tumor; day 75 post tumor implantation): 401 mm^3 | Average Tumor Volume (SNU449 xenograft tumor; day 78 post tumor implantation): 429 mm^3 | Average Tumor Volume (SNU449 xenograft tumor; day 81 post tumor implantation): 514 mm^3 | Average Tumor Volume (SNU449 xenograft tumor; day 85 post tumor implantation): 606 mm^3 | Average Tumor Volume (SNU449 xenograft tumor; day 88 post tumor implantation): 613 mm^3 | Average Tumor Volume (SNU449 xenograft tumor; day 92 post tumor implantation): 690 mm^3 | Average Tumor Volume (SNU449 xenograft tumor; day 94 post tumor implantation): 773 mm^3 | Average Tumor Volume (SNU449 xenograft tumor; day 98 post tumor implantation): 804 mm^3 | Average Tumor Volume (SNU449 xenograft tumor; [6]): 818 mm^3 | Average Tumor Volume (SNU449 xenograft tumor; [7]): 894 mm^3 | Average Tumor Volume (SNU449 xenograft tumor; [8]): 921 mm^3 | Average Tumor Volume (SNU449 xenograft tumor; [9]): 978 mm^3

958499 (kA*kT*kT*dA*dG*dA*dG*dT*dA*dT*dG*dT*dG*kG*k[5mC]*kA) [Compound 958499]
YAP1 (% UTC) (Yap1 mRNA [5]; Table 12, A-431 cells, 5,000 cells per well, free uptake, 2,000 nM modified oligonucleotide, approx. 48 hours, RTS36584, normalized to RIBOGREEN, Yap1 mRNA relative to untreated control cells): 1 % UTC

CGCCGATAAGGTACAC (cEt gapmer, phosphorothioate backbone, further chemistry not given here) [ION 792169, reference compound]
Yap1 mRNA levels in tumors (Yap1 mRNA [4]): 90 % control | Average Tumor Volume (SNU449 xenograft tumor; day 43 post tumor implantation): 111 mm^3 | Average Tumor Volume (SNU449 xenograft tumor; day 46 post tumor implantation): 162 mm^3 | Average Tumor Volume (SNU449 xenograft tumor; day 50 post tumor implantation): 180 mm^3 | Average Tumor Volume (SNU449 xenograft tumor; day 53 post tumor implantation): 247 mm^3 | Average Tumor Volume (SNU449 xenograft tumor; day 57 post tumor implantation): 280 mm^3 | Average Tumor Volume (SNU449 xenograft tumor; day 60 post tumor implantation): 317 mm^3 | Average Tumor Volume (SNU449 xenograft tumor; day 64 post tumor implantation): 397 mm^3 | Average Tumor Volume (SNU449 xenograft tumor; day 67 post tumor implantation): 466 mm^3 | Average Tumor Volume (SNU449 xenograft tumor; day 71 post tumor implantation): 519 mm^3 | Average Tumor Volume (SNU449 xenograft tumor; day 75 post tumor implantation): 559 mm^3 | Average Tumor Volume (SNU449 xenograft tumor; day 78 post tumor implantation): 634 mm^3 | Average Tumor Volume (SNU449 xenograft tumor; day 81 post tumor implantation): 681 mm^3 | Average Tumor Volume (SNU449 xenograft tumor; day 85 post tumor implantation): 785 mm^3 | Average Tumor Volume (SNU449 xenograft tumor; day 88 post tumor implantation): 889 mm^3 | Average Tumor Volume (SNU449 xenograft tumor; day 92 post tumor implantation): 1170 mm^3 | Average Tumor Volume (SNU449 xenograft tumor; day 94 post tumor implantation): 1215 mm^3 | Average Tumor Volume (SNU449 xenograft tumor; day 98 post tumor implantation): 1355 mm^3 | Average Tumor Volume (SNU449 xenograft tumor; [6]): 1417 mm^3 | Average Tumor Volume (SNU449 xenograft tumor; [7]): 1509 mm^3 | Average Tumor Volume (SNU449 xenograft tumor; [8]): 1571 mm^3 | Average Tumor Volume (SNU449 xenograft tumor; [9]): 1697* mm^3

958499 (ATTAGAGTATGTGGCA; 3-10-3 cEt gapmer, further chemistry not given here) [compound 958499]
YAP1 (% UTC) (Yap1 mRNA [5]; Table 26, Yap1 mRNA by 3-10-3 cEt gapmers targeting SEQ ID NO.: 1, and 2, percent of untreated control): 1 % UTC | YAP1 (% UTC) (Yap1 mRNA [5]; Table 27, Yap1 mRNA by 3-10-3 cEt gapmers targeting SEQ ID NO.: 1, and 2, percent of untreated control): 2 % UTC | YAP1 (% UTC) (Yap1 mRNA [5]; Table 28, Yap1 mRNA as percent of untreated control, 3-10-3 cEt gapmers targeting SEQ ID NO.: 1, and 2): 2 % UTC | YAP1 (% UTC) (Yap1 mRNA [5]; Table 29, Yap1 mRNA as percent of untreated control, 3-10-3 cEt gapmers targeting SEQ ID NO.: 1, and 2): 2 % UTC | YAP1 (% UTC) (Yap1 mRNA [5]; Table 34, Yap1 mRNA as percent of untreated control, 3-10-3 cEt gapmers targeting SEQ ID NO: 1 and 2, single dose): 1 % UTC | YAP1 (% UTC) (Yap1 mRNA [5]; Table 35, Yap1 mRNA as percent of untreated control, 3-10-3 cEt gapmers targeting SEQ ID NO: 1 and 2, single dose): 2 % UTC | Yap1 mRNA, % UTC (Yap1 mRNA [1]; Table 61, 15.6 nM, A-431 cells 10,000 cells per well, 48 hours): 54 % UTC | Yap1 mRNA, % UTC (Yap1 mRNA [1]; Table 61, 62.5 nM, A-431 cells 10,000 cells per well, 48 hours): 12 % UTC | Yap1 mRNA, % UTC (Yap1 mRNA [1]; Table 61, 4000.00 nM, A-431 cells 10,000 cells per well, 48 hours): 1 % UTC | IC50 (Yap1 mRNA [1]; Table 61, A-431 cells 10,000 cells per well): < 10 nM | ALB [3]: 2.78 g/dL | ALT [3]: 61 U/L | AST [3]: 109 U/L | BUN [3]: 24 mg/dL | TBIL [3]: 0.18 mg/dL
